The text below walks through data of patent US20120128732A1, “COMBINATIONS AND MODES OF ADMINISTRATION OF THERAPEUTIC AGENTS AND COMBINATION THERAPY” (priority 2008, published 2012).

The subject of experiment [1] is second or third-line metastatic colon cancer. Conditions: perifosine in combination with capecitabine, patients with advanced; cited from earlier work.
Experiment [2] concerns imatinib-resistant gastrointestinal stromal tumor. Conditions: addition of perifosine to imatinib, patients; cited from earlier work.
Experiment [3] concerns metastatic or advanced renal cell carcinoma. Conditions: progressing after prior therapy with a VEGF receptor inhibitor; cited from earlier work.
For experiment [4], the system named is MDA-MB-231 breast tumor xenografts. The experiment is described as follows: Survival signals in MDA-MB-231 breast tumor xenografts after Abraxane (Western blotting, immunohistochemistry). The class given is in vivo, mice. How it is done:
[…] Tumor lysates were analyzed for VEGF expression and pro-survival signals (p42 & p44 kinase, p-NF-κB p50, p-Akt, bcl-2) using Western blotting. Expression of bcl-2 was further analyzed by immunohistochemistry.
(In general: In western blotting, separated proteins are transferred to a membrane and probed.)

On to `CCCCCCCCCCCCCCCCCCOP(=O)([O-])OC1CC[N+](C)(C)CC1` [perifosine], for which the “median time to progression over capecitabine alone” value in experiment [1] is on record as “more than doubled”. Moreover, in experiment [2], the “activity in imatinib-refractory gastrointestinal stromal tumor” value is “minimal activity”. In addition, the “clinical outcome in renal cell carcinoma” value in experiment [3] was “clinical benefits”.
Consider `CC(=O)O[C@H]1C(=O)[C@@]2(C)[C@H]([C@H](OC(=O)c3ccccc3)[C@]3(O)C[C@H](OC(=O)[C@H](O)[C@@H](NC(=O)c4ccccc4)c4ccccc4)C(C)=C1C3(C)C)[C@]1(OC(C)=O)CO[C@@H]1C[C@@H]2O` [paclitaxel], for which the “bcl-2 expression in tumors” value in experiment [4] (surviving MDA-MB-231 tumors, SCID mice, Abraxane 10 to 30 mg/kg IV qdx5, Western blotting and immunohistochemistry) is “Significant increases”. For the same compound, the “inflammatory cytokines in tumors” value in experiment [4] (tumors extracted immediately after therapy, Western blotting and immunohistochemistry) was “Significant increases”.
